pIC50: −log10 of the molar value. Where two headings read alike, the source gives them in different places.

Experimental findings from patent US20250340557A1, “PYRIMIDINE DERIVATIVE” (ASKA PHARMACEUTICAL CO., LTD., priority 2022, published 2025) are described below.

This test has as its target T1, human mPGES-1 (Homo sapiens, UniProt O14684).
T1 construct: made in house; host or cells: COS-1 cells (transient transfection; microsomal fraction used as enzyme)
T1 sequence (O14684 1-152): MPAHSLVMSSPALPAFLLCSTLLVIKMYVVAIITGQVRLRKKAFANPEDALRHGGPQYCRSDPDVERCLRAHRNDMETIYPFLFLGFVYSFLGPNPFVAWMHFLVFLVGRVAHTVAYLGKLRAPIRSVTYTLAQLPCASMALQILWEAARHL
Description: Test for mPGES-1 inhibitory activity (microsomal enzyme, PGE2 EIA). Format: biochemical. To be noted: 4° C., 4 minutes, read-out: h mPGES1 IC50. The method in brief: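 IC50 values were derived from EIA-quantified PGE2 after a 4 min, 4 °C reaction with PGH2 at 1 μM final, stopped with ferric chloride/citric acid. Beforehand, compound (2% DMSO final) sat 15 min at 4 °C with human mPGES-1 microsomes from transiently transfected COS-1 cells. Buffer was sodium phosphate pH 7.2 containing 2.5 mM reduced glutathione and 1 mM EDTA.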

The mark [1] stands for this setting: microsomes of COS-1 cells transfected with human mPGES-1 cDNA, PGH2 1 μM, PGE2 by EIA.
Setting [2] is: microsomes from COS-1 cells transfected with human mPGES-1 cDNA, substrate PGH2 1 μM, PGE2 measured by EIA.

On to `O=c1cc(C(F)(F)F)nc(-c2c(C(F)(F)F)ccc(CNC(=O)[C@H]3C[C@H](OCc4cc(F)cc(Cl)c4)C3)c2F)[nH]1` [Example 159, trans-3-[(3-chloro-5-fluorobenzyl)oxy]-N-{2-fluoro-3-[6-oxo-4-(trifluoromethyl)-1,6-dihydropyrimidin-2-yl]-4-(trifluoromethyl)benzyl}cyclobutane-1-carboxamide], for which the pIC50 under setting [1] was greater than 7.92.
Take `O=C(NCc1ccc(C(F)(F)F)c(-c2nc(C(F)(F)F)cc(=O)[nH]2)c1F)C1CN(c2cccc(C(F)(F)F)n2)C1` [Example 26, N-{2-fluoro-3-[6-oxo-4-(trifluoromethyl)-1,6-dihydropyrimidin-2-yl]-4-(trifluoromethyl)benzyl}-1-[6-(trifluoromethyl)pyridin-2-yl]azetidine-3-carboxamide]: the pIC50 under setting [2] was 8.39.
For `Cc1nc(-c2c(C(F)(F)F)ccc(CNC(=O)[C@H]3C[C@H](OCc4cccc(C(F)(F)F)c4)C3)c2F)[nH]c(=O)c1F` [Example 216, trans-N-[2-fluoro-3-(5-fluoro-4-methyl-6-oxo-1,6-dihydropyrimidin-2-yl)-4-(trifluoromethyl)benzyl]-3-{[3-(trifluoromethyl)benzyl]oxy}cyclobutane-1-carboxamide], the pIC50 under setting [1] was 7.80.
With `CCc1cc(=O)[nH]c(-c2c(C(F)(F)F)ccc(CNC(=O)[C@H]3C[C@H](OCc4ccccc4Cl)C3)c2F)n1` [Example 195, trans-3-[(2-chlorobenzyl)oxy]-N-[3-(4-ethyl-6-oxo-1,6-dihydropyrimidin-2-yl)-2-fluoro-4-(trifluoromethyl)benzyl]cyclobutane-1-carboxamide], the negative logarithm of the IC50 (pIC50) under setting [1] was greater than 9.00.
Turning to `O=c1cc(C(F)(F)F)nc(-c2c(C(F)(F)F)ccc(CNC(=O)[C@H]3C[C@H](OCc4cccc(F)c4F)C3)c2F)[nH]1` [Example 153, trans-3-[(2,3-difluorobenzyl)oxy]-N-{2-fluoro-3-[6-oxo-4-(trifluoromethyl)-1,6-dihydropyrimidin-2-yl]-4-(trifluoromethyl)benzyl}cyclobutane-1-carboxamide], under setting [1], the negative-log IC50 (pIC50) was greater than 9.00.
As to `CCc1nc(-c2c(C(F)(F)F)ccc(CNC(=O)[C@H]3C[C@H](OCc4cccc(F)c4F)C3)c2F)[nH]c(=O)c1F` [Example 240, trans-3-[(2,3-difluorobenzyl)oxy]-N-[3-(4-ethyl-5-fluoro-6-oxo-1,6-dihydropyrimidin-2-yl)-2-fluoro-4-(trifluoromethyl)benzyl]cyclobutane-1-carboxamide], the pIC50 under setting [1] was 8.49.
As to `CCc1nc(-c2c(C(F)(F)F)ccc(CNC(=O)C3CCN(c4ccc(C(F)(F)F)cn4)CC3)c2F)[nH]c(=O)c1F` [Example 42, N-[3-(4-ethyl-5-fluoro-6-oxo-1,6-dihydropyrimidin-2-yl)-2-fluoro-4-(trifluoromethyl)benzyl]-1-[5-(trifluoromethyl)pyridin-2-yl]piperidine-4-carboxamide], the pIC50 under setting [2] is greater than 9.00.
On the same count and under the same terms, the same measure for `O=c1cc(C(F)(F)F)nc(-c2c(C(F)(F)F)ccc(CNC(=O)[C@H]3CC[C@H](OCc4cccc(Cl)c4)CC3)c2F)[nH]1` [Example 100, trans-4-[(3-chlorobenzyl)oxy]-N-{2-fluoro-3-[6-oxo-4-(trifluoromethyl)-1,6-dihydropyrimidin-2-yl]-4-(trifluoromethyl)benzyl}cyclohexane-1-carboxamide]: greater than 9.00; for `O=C(NCc1ccc(C(F)(F)F)c(-c2nc(C(F)(F)F)cc(=O)[nH]2)c1F)C1CCN(c2cccc(C(F)(F)F)n2)CC1` [Example 22, N-{2-fluoro-3-[6-oxo-4-(trifluoromethyl)-1,6-dihydropyrimidin-2-yl]-4-(trifluoromethyl)benzyl}-1-[6-(trifluoromethyl)pyridin-2-yl]piperidine-4-carboxamide]: 8.31.
`Cc1cc(=O)[nH]c(-c2c(C(F)(F)F)ccc(CNC(=O)[C@H]3C[C@H](OCc4cccc(Cl)c4F)C3)c2F)n1` [Example 191, trans-3-[(3-chloro-2-fluorobenzyl)oxy]-N-[2-fluoro-3-(4-methyl-6-oxo-1,6-dihydropyrimidin-2-yl)-4-(trifluoromethyl)benzyl]cyclobutane-1-carboxamide]: under setting [1], the pIC50 is greater than 9.00.
For `O=C(NCc1ccc(C(F)(F)F)c(-c2nc(C(F)(F)F)cc(=O)[nH]2)c1F)C1CCN(c2ccc(Cl)cc2)CC1` [Example 64, 1-(4-chlorophenyl)-N-{2-fluoro-3-[6-oxo-4-(trifluoromethyl)-1,6-dihydropyrimidin-2-yl]-4-(trifluoromethyl)benzyl}piperidine-4-carboxamide], the pIC50 under setting [2] is greater than 9.00.
With `O=c1cc(C(F)(F)F)nc(-c2c(C(F)(F)F)ccc(CNC(=O)[C@H]3CC[C@H](OCc4cc(F)cc(F)c4)CC3)c2F)[nH]1` [Example 117, trans-4-[(3,5-difluorobenzyl)oxy]-N-{2-fluoro-3-[6-oxo-4-(trifluoromethyl)-1,6-dihydropyrimidin-2-yl]-4-(trifluoromethyl)benzyl}cyclohexane-1-carboxamide], the pIC50 under setting [2] was greater than 9.00.
Consider `O=c1cc(C(F)F)nc(-c2c(C(F)(F)F)ccc(CNC(=O)[C@H]3C[C@H](OCc4ccc(F)c(F)c4)C3)c2F)[nH]1` [Example 169, trans-3-[(3,4-difluorobenzyl)oxy]-N-{3-[4-(difluoromethyl)-6-oxo-1,6-dihydropyrimidin-2-yl]-2-fluoro-4-(trifluoromethyl)benzyl}cyclobutane-1-carboxamide], for which the negative-log IC50 (pIC50) under setting [1] was greater than 9.00.
`O=C(NCc1ccc(C(F)(F)F)c(-c2nc(C(F)F)cc(=O)[nH]2)c1F)C1CCN(c2ccc(C(F)(F)F)cn2)CC1` [Example 29, N-{3-[4-(difluoromethyl)-6-oxo-1,6-dihydropyrimidin-2-yl]-2-fluoro-4-(trifluoromethyl)benzyl}-1-[5-(trifluoromethyl)pyridin-2-yl]piperidine-4-carboxamide]: under setting [2], the pIC50 was 7.96.
On to `O=c1cc(C(F)(F)F)nc(-c2c(C(F)(F)F)ccc(CNC(=O)[C@H]3C[C@@H](OCc4cccc(C(F)(F)F)c4)C3)c2F)[nH]1` [Example 145, cis-N-{2-fluoro-3-[6-oxo-4-(trifluoromethyl)-1,6-dihydropyrimidin-2-yl]-4-(trifluoromethyl)benzyl}-3-{[3-(trifluoromethyl)benzyl]oxy}cyclobutane-1-carboxamide], for which, under setting [1], the negative logarithm of the IC50 (pIC50) is 7.01.
Take `Cc1cc(=O)[nH]c(-c2c(C(F)(F)F)ccc(CNC(=O)C3CCN(c4ncc(Cl)cc4Cl)CC3)c2F)n1` [Example 46, 1-(3,5-dichloropyridin-2-yl)-N-[2-fluoro-3-(4-methyl-6-oxo-1,6-dihydropyrimidin-2-yl)-4-(trifluoromethyl)benzyl]piperidine-4-carboxamide]: under setting [2], the pIC50 was 7.31.
For the compound `CCc1nc(-c2c(C(F)(F)F)ccc(CNC(=O)C3CCN(c4ccc(Cl)cn4)CC3)c2F)[nH]c(=O)c1F` [Example 57, 1-(5-chloropyridin-2-yl)-N-[3-(4-ethyl-5-fluoro-6-oxo-1,6-dihydropyrimidin-2-yl)-2-fluoro-4-(trifluoromethyl)benzyl]piperidine-4-carboxamide], under setting [2], the pIC50 was greater than 9.00.
Turning to `Cc1cc(=O)[nH]c(-c2c(C(F)(F)F)ccc(CNC(=O)[C@H]3C[C@H](OCc4ccccc4C(F)(F)F)C3)c2F)n1` [Example 181, trans-N-[2-fluoro-3-(4-methyl-6-oxo-1,6-dihydropyrimidin-2-yl)-4-(trifluoromethyl)benzyl]-3-{[2-(trifluoromethyl)benzyl]oxy}cyclobutane-1-carboxamide], under setting [1], the pIC50 is 7.72.

What is called pIC50 is the negative decadic logarithm of the IC50, by convention in mol/L.
